From US7998987B2, “Inhibitors of c-Met and uses thereof” (Vertex Pharmaceuticals Incorporated, priority 2005, dated 2011)

Target: c-Met (Homo sapiens, UniProt P08581)
Assay: Ki determination for the inhibition of c-Met kinase activity (standard coupled enzyme system)
Format: biochemical
Settings: coupled enzyme system, 200 μM ATP, 10 μM polyGluTyr, 80 nM c-Met, 30° C.; read-out: c-Met Ki
Method: Ki Determination for the Inhibition of c-Met
Reactions were carried out in a solution containing 100 mM HEPES (pH 7.5), 10 mM MgCl2, 25 mM NaCl, 300 μM NADH, 1 mM DTT, and 1.5% DMSO. Final substrate concentrations in the assay were 200 μM ATP (Sigma Chemicals, St Louis, Mo.) and 10 μM polyGluTyr (Sigma Chemical Company, St. Louis). Reactions were carried out at 30° C. and 80 nM c-Met. Final concentrations of the components of the coupled enzyme system were 2.5 mM phosphoenolpyruvate, 300 μM NADH, 30 μg/ml pyruvate kinase and 10 μg/ml lactate dehydrogenase.
An assay stock buffer solution was prepared containing all of the reagents listed above with the exception of ATP and a test compound of the present invention. […] The reaction was initiated by the addition of 20 μL of ATP (final concentration 200 μM). Rates of reaction were obtained using a Molecular Devices Spectramax plate reader (Sunnyvale, Calif.) over 10 minutes at 30° C. The Ki values were determined from the rate data as a function of inhibitor concentration.

c-Met, sequence (P08581 25-1390): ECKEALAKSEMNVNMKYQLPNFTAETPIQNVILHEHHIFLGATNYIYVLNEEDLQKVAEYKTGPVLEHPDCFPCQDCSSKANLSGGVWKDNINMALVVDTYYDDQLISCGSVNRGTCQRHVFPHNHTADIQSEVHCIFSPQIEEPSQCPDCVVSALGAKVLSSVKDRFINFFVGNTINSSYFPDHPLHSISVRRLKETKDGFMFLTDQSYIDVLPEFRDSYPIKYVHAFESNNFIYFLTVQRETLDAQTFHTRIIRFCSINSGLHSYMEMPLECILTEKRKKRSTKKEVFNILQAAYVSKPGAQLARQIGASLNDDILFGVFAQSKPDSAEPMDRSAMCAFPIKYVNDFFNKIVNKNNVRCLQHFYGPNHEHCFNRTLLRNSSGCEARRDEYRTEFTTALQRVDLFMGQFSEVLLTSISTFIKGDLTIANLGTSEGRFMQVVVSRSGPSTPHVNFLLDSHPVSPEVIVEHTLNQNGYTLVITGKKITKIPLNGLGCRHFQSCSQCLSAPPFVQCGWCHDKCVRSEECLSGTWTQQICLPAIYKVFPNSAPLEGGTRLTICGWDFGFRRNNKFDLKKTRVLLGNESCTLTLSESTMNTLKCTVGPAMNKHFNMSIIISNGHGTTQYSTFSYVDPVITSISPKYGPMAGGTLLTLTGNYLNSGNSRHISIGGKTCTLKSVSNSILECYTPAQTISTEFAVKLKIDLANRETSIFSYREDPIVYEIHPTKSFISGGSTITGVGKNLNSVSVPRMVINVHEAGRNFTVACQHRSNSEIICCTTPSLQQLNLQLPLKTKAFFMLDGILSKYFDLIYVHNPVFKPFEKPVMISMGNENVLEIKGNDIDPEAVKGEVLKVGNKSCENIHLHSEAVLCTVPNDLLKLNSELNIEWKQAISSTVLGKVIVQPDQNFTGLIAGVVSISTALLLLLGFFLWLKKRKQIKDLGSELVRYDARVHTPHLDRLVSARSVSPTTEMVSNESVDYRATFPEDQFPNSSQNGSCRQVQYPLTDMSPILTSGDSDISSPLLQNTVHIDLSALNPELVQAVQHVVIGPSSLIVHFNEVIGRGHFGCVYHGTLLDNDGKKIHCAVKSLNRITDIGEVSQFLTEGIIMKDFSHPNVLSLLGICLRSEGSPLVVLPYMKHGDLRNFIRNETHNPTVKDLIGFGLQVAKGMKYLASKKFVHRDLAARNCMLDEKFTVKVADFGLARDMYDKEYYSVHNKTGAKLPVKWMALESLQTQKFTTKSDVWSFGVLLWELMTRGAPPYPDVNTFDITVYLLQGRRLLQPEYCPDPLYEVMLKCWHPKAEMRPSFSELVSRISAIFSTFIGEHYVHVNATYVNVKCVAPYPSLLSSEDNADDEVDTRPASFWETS

Compound	Ki [nM]
Nc1nn2c(Cc3ccc(OCc4ccccc4)cc3)nnc2s1 [Compound 1]	> 2000
c1csc(-c2nn3c(Cc4ccc5c(c4)OCO5)nnc3s2)c1 [Compound 2, 3-((benzo[d][1,3]dioxol-5-yl)methyl)-6-(thiophen-2-yl)-[1,2,4]triazolo[3,4-b][1,3,4]thiadiazole]	100 to 2000
COc1ccc(Cc2nnc3sc(-c4ccccc4)nn23)cc1 [Compound 3]	> 2000
Nc1nn2c(Cc3ccc(O)cc3)nnc2s1 [Compound 7]	100 to 2000
Oc1ccc(Cc2nnc3sc(NCc4ccccc4)nn23)cc1 [Compound 8]	100 to 2000
Oc1ccc(Cc2nnc3sc(NCc4cccnc4)nn23)cc1 [Compound 9]	100 to 2000
Oc1ccc(Cc2nnc3sc(Nc4ccccn4)nn23)cc1 [Compound 10]	> 2000
COCC1CCCN1c1nn2c(Cc3ccc(OC)cc3)nnc2s1 (centres unmarked) [Compound 12]	> 2000
CNc1nn2c(Cc3ccc(O)cc3)nnc2s1 [Compound 14]	100 to 2000
Oc1ccc(Cc2nnc3sc(NCCN4CCOCC4)nn23)cc1 [Compound 15]	> 2000
COC(=O)c1ccc(Nc2nn3c(Cc4ccc(O)cc4)nnc3s2)cc1 [Compound 16]	< 100
Oc1ccc(Cc2nnc3sc(NCC4CCCO4)nn23)cc1 (centres unmarked) [Compound 17]	100 to 2000
N#Cc1cccc(Nc2nn3c(Cc4ccc(O)cc4)nnc3s2)c1 [Compound 18]	> 2000
Oc1ccc(Cc2nnc3sc(NC4CC4)nn23)cc1 [Compound 19]	> 2000
COc1ccc(Cc2nnc3sc(-c4ccccn4)nn23)cc1 [Compound 20]	100 to 2000
COc1ccc(Cc2nnc3sc(Cc4ccccc4)nn23)cc1 [Compound 21]	> 2000
COc1ccc(Cc2nnc3sc(-c4cccs4)nn23)cc1 [Compound 22]	100 to 2000
COc1ccc(Cc2nnc3sc(CNC(C)=O)nn23)cc1 [Compound 23]	> 2000
COc1ccc(Cc2nnc3sc(C4CCCCN4)nn23)cc1 (centres unmarked) [Compound 24]	> 2000
COc1cc(Cc2nnc3sc(Nc4ccccc4)nn23)ccc1O [Compound 26]	100 to 2000
COc1ccccc1Nc1nn2c(Cc3ccc4c(c3)OCO4)nnc2s1 [Compound 28]	100 to 2000

Compound	Ki [nM]
COc1ccccc1Nc1nn2c(Cc3ccc(O)cc3)nnc2s1 [Compound 29]	100 to 2000
COc1ccccc1Nc1nn2c(Cc3ccc(O)c(F)c3)nnc2s1 [Compound 30]	100 to 2000
COc1ccccc1Nc1nn2c(Cc3ccc(O)c(Cl)c3)nnc2s1 [Compound 31]	100 to 2000
COc1ccccc1Nc1nn2c(C(C)c3ccc(O)cc3)nnc2s1 (centres unmarked) [Compound 32]	100 to 2000
COc1cc(Cc2nnc3sc(Nc4ccccc4OC)nn23)ccc1O [Compound 33]	> 2000
COc1cccc(Nc2nn3c(Cc4ccc5c(c4)OCO5)nnc3s2)c1 [Compound 34]	100 to 2000
COc1cccc(Nc2nn3c(Cc4ccc(O)c(F)c4)nnc3s2)c1 [Compound 35]	100 to 2000
COc1cccc(Nc2nn3c(Cc4ccc(O)c(Cl)c4)nnc3s2)c1 [Compound 36]	100 to 2000
COc1cccc(Nc2nn3c(C(C)c4ccc(O)cc4)nnc3s2)c1 (centres unmarked) [Compound 37]	< 100
COc1cccc(Nc2nn3c(Cc4ccc(O)c(OC)c4)nnc3s2)c1 [Compound 38]	100 to 2000
COc1ccc(Nc2nn3c(Cc4ccc(O)c(Cl)c4)nnc3s2)cc1 [Compound 39]	100 to 2000
COc1ccc(Nc2nn3c(C(C)c4ccc(O)cc4)nnc3s2)cc1 (centres unmarked) [Compound 40]	< 100
CN(C)c1nn2c(Cc3ccc(O)cc3)nnc2s1 [Compound 41]	> 2000
c1cc2c(cc1Cc1nnc3sc(NCC4CCCO4)nn13)OCO2 (centres unmarked) [Compound 42]	> 2000
Oc1ccc(Cc2nnc3sc(Nc4ccc(C(F)(F)F)cc4)nn23)cc1 [Compound 43]	< 100
Cc1cccc(Nc2nn3c(Cc4ccc(O)cc4)nnc3s2)c1 [Compound 44]	< 100
Oc1ccc(Cc2nnc3sc(Nc4cccc(Cl)c4Cl)nn23)cc1 [Compound 45]	< 100
Oc1ccc(Cc2nnc3sc(Nc4ccc(F)cc4)nn23)cc1 [Compound 46]	< 100
c1ccc([C@@H]2C[C@H]2c2nn3c(Cc4ccc5c(c4)OCO5)nnc3s2)cc1 [Compound 47]	> 2000
c1coc(-c2nn3c(Cc4ccc5c(c4)OCO5)nnc3s2)c1 [Compound 48]	> 2000

Results, then the compound that gave them:

Ki [nM]	Compound
> 2000	c1csc(Cc2nn3c(Cc4ccc5c(c4)OCO5)nnc3s2)c1 [Compound 49]
< 100	Oc1ccc(Cc2nnc3sc(Nc4cc(Cl)cc(Cl)c4)nn23)cc1 [Compound 50]
> 2000	COc1cc(Cc2nnc3sc(Nc4cccnc4)nn23)ccc1O [Compound 51]
< 100	Oc1ccc(Cc2nnc3sc(Nc4ccc(Cl)cc4)nn23)cc1 [Compound 52]
< 100	CC(c1ccc(O)cc1)c1nnc2sc(Nc3ccc(Cl)cc3)nn12 (centres unmarked) [Compound 53]
< 100	Oc1ccc(Cc2nnc3sc(Nc4ccc(Cl)cc4)nn23)cc1F [Compound 54]
100 to 2000	Oc1ccc(Cc2nnc3sc(Nc4ccc(Cl)cc4)nn23)cc1Cl [Compound 55]
100 to 2000	Clc1ccc(Nc2nn3c(Cc4ccc5c(c4)OCO5)nnc3s2)cc1 [Compound 56]
> 2000	O=C(Nc1nn2c(Cc3ccc(O)cc3)nnc2s1)c1ccccc1 [Compound 57]
< 100	Oc1ccc(Cc2nnc3sc(Nc4cccc(F)c4)nn23)cc1 [Compound 59]
< 100	Cc1ccc(Nc2nn3c(Cc4ccc(O)cc4)nnc3s2)cc1 [Compound 60]
< 100	COC(=O)c1cccc(Nc2nn3c(Cc4ccc(O)cc4)nnc3s2)c1 [Compound 61]
< 100	CC(c1ccc(O)cc1)c1nnc2sc(Nc3cccc(Cl)c3)nn12 (centres unmarked) [Compound 63]
100 to 2000	COc1ccc(Nc2nn3c(Cc4ccc(O)c(F)c4)nnc3s2)cc1 [Compound 64]
100 to 2000	COc1ccc(Nc2nn3c(Cc4ccc5c(c4)OCO5)nnc3s2)cc1 [Compound 65]
< 100	CC(c1ccc(O)cc1)c1nnc2sc(Nc3ccccc3Cl)nn12 (centres unmarked) [Compound 66]
100 to 2000	Oc1ccc(Cc2nnc3sc(Nc4ccccc4Cl)nn23)cc1Cl [Compound 67]
100 to 2000	Clc1ccccc1Nc1nn2c(Cc3ccc4c(c3)OCO4)nnc2s1 [Compound 68]
> 2000	COC(=O)c1ccccc1Nc1nn2c(Cc3ccc(O)cc3)nnc2s1 [Compound 69]
> 2000	Oc1ccc(Cc2nnc3sc(Nc4ccc5nsnc5c4)nn23)cc1 [Compound 70]
< 100	Oc1ccc(Cc2nnc3sc(Nc4ccc(-n5cccn5)cc4)nn23)cc1 [Compound 71]
100 to 2000	Cc1ccc(Nc2nn3c(Cc4ccc(O)cc4)nnc3s2)cc1C [Compound 72]
100 to 2000	Cc1ccc(Nc2nn3c(Cc4ccc(O)cc4)nnc3s2)cc1Cl [Compound 73]
100 to 2000	CN(C)c1ccc(Nc2nn3c(Cc4ccc(O)cc4)nnc3s2)cc1 [Compound 74]

Ki [nM]	Compound
< 100	Cc1ccc(F)cc1Nc1nn2c(Cc3ccc(O)cc3)nnc2s1 [Compound 75]
100 to 2000	Cc1cc(F)ccc1Nc1nn2c(Cc3ccc(O)cc3)nnc2s1 [Compound 76]
< 100	Oc1ccc(Cc2nnc3sc(Nc4cc(Cl)ccc4Cl)nn23)cc1 [Compound 77]
< 100	Oc1ccc(Cc2nnc3sc(Nc4ccccc4Cl)nn23)cc1 [Compound 78]
100 to 2000	Oc1ccc(Cc2nnc3sc(Nc4ccccc4Cl)nn23)cc1F [Compound 79]
< 100	COc1ccc(Nc2nn3c(Cc4ccc(O)cc4)nnc3s2)cc1 [Compound 80]
< 100	Oc1ccc(Cc2nnc3sc(Nc4cccnc4)nn23)cc1 [Compound 81]
< 100	CC(c1ccc(O)cc1)c1nnc2sc(Nc3cccnc3)nn12 (centres unmarked) [Compound 82]
100 to 2000	Oc1ccc(Cc2nnc3sc(Nc4cccnc4)nn23)cc1F [Compound 83]
100 to 2000	c1cncc(Nc2nn3c(Cc4ccc5c(c4)OCO5)nnc3s2)c1 [Compound 84]
100 to 2000	CN(C)c1ccc(Nc2nn3c(Cc4ccc5c(c4)OCO5)nnc3s2)cc1 [Compound 85]
100 to 2000	Oc1ccc(Cc2nnc3sc(NC4CCCCC4)nn23)cc1 [Compound 86]
> 2000	CNC(=O)c1nn2c(C(C)c3ccc(O)cc3)nnc2s1 (centres unmarked) [Compound 87]
> 2000	CC(c1ccc(O)cc1)c1nnc2sc(C(N)=O)nn12 (centres unmarked) [Compound 88]
> 2000	CC(c1ccc(O)cc1)c1nnc2sc(C(=O)N3CCCC3)nn12 (centres unmarked) [Compound 89]
> 2000	CC(c1ccc(O)cc1)c1nnc2sc(C(=O)NC3CC3)nn12 (centres unmarked) [Compound 90]
> 2000	Clc1ccc(Cc2nnc3sc(Nc4cccc(Cl)c4)nn23)cc1 [Compound 91]
> 2000	Oc1cccc(CCc2nnc3sc(Nc4cccc(Cl)c4)nn23)c1 [Compound 92]
> 2000	Oc1ccc(CCc2nnc3sc(Nc4cccc(F)c4)nn23)cc1 [Compound 93]
> 2000	Oc1ccc(CCc2nnc3sc(Nc4cccc(Cl)c4)nn23)cc1 [Compound 94]
> 2000	Oc1cccc(CCc2nnc3sc(Nc4cccc(F)c4)nn23)c1 [Compound 95]
< 100	Oc1ccc(Cc2nnc3sc(Nc4cccc(F)c4)nn23)cc1Cl [Compound 97]
100 to 2000	Oc1ccc(Cc2nnc3sc(Nc4cccc(F)c4F)nn23)cc1F [Compound 99]
< 100	CC(c1ccc(O)cc1)c1nnc2sc(Nc3cccc(F)c3)nn12 (centres unmarked) [Compound 100]
